Experimental data taken from ChEMBL document CHEMBL1201862, “PubChem BioAssay data set” (2004).
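Compound exposure: 48 hours, 5 concentrations, 96-well plates. GI50: concentration for 50% inhibition of growth.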 Activity calls are given as the source filed them. Cut-off read from the data, not from the text of the source: active = GI50 up to about 1.1 µM and inactive = higher.

Assays:
Assay in all cases: NCI anticancer screen, dose series, 48 h
TK-10 = test system: TK-10
SK-MEL-2 = test system: SK-MEL-2
786-0 = test system: 786-0
HOP-92 = test system: HOP-92
CAKI-1 = test system: CAKI-1
OVCAR-3 = test system: OVCAR-3
HCC 2998 = test system: HCC 2998
SN12C = test system: SN12C
M14 = test system: M14
NCI-H460 = test system: NCI-H460
OVCAR-5 = test system: OVCAR-5
T47D = test system: T47D
HT-29 = test system: HT-29
UACC-62 = test system: UACC-62
RPMI-8226 = test system: RPMI-8226
SK-OV-3 = test system: SK-OV-3
OVCAR-8 = test system: OVCAR-8
UACC-257 = test system: UACC-257
EKVX = test system: EKVX
Malme-3M = test system: Malme-3M

| Structure (SMILES) | GI50 (TK-10) | GI50 (SK-MEL-2) | GI50 (786-0) | GI50 (HOP-92) | GI50 (CAKI-1) | GI50 (OVCAR-3) | GI50 (HCC 2998) | GI50 (SN12C) | GI50 (M14) | GI50 (NCI-H460) | GI50 (OVCAR-5) | GI50 (T47D) | GI50 (HT-29) | GI50 (UACC-62) | GI50 (RPMI-8226) | GI50 (SK-OV-3) | GI50 (OVCAR-8) | GI50 (UACC-257) | GI50 (EKVX) | GI50 (Malme-3M) |
| --- | --- | --- | --- | --- | --- | --- | --- | --- | --- | --- | --- | --- | --- | --- | --- | --- | --- | --- | --- | --- |
| COC(=O)C1CCC(=O)N1C(c1ccc(OC)cc1)c1cc(OC)c(OC)c(OC)c1 (stereo not given) | > 37.8 µM (inactive) | 0.649 µM (active) | 0.507 µM (active) | > 100 µM (inactive) | 0.313 µM (active) | 0.261 µM (active) | 0.249 µM (active) | 0.531 µM (active) | 0.322 µM (active) | 0.33 µM (active) | 0.592 µM (active) | > 100 µM (inactive) | 0.255 µM (active) | 0.163 µM (active) | 0.239 µM (active) | 0.968 µM (active) | 0.348 µM (active) |  |  |  |
| Cc1cc(C)nc(NS(=O)(=O)c2ccc(NC(=O)c3cccc4c(NNc5ccc(S(=O)(=O)N=C(N)N)cc5)c5ccccc5nc34)cc2)n1 | > 50 µM (inactive) |  | > 50 µM (inactive) | > 50 µM (inactive) | > 50 µM (inactive) | > 50 µM (inactive) | > 50 µM (inactive) | > 50 µM (inactive) | > 50 µM (inactive) | > 50 µM (inactive) |  | > 50 µM (inactive) | > 50 µM (inactive) | > 50 µM (inactive) | > 50 µM (inactive) | > 50 µM (inactive) | > 50 µM (inactive) | > 50 µM (inactive) | > 50 µM (inactive) | > 50 µM (inactive) |
| CCOC(=O)C1(C(=O)OCC)C=C(c2ccccc2)N(C2OC(COC(C)=O)C(OC(C)=O)C(OC(C)=O)C2OC(C)=O)C1=S (stereo not given) |  | 36.8 µM (inactive) | > 100 µM (inactive) | 93.3 µM (inactive) | > 100 µM (inactive) | > 100 µM (inactive) | > 100 µM (inactive) | > 100 µM (inactive) | 56.5 µM (inactive) | > 100 µM (inactive) | > 100 µM (inactive) | > 100 µM (inactive) | > 100 µM (inactive) | 57.7 µM (inactive) | 17 µM (inactive) | 70.3 µM (inactive) | > 100 µM (inactive) | 90.4 µM (inactive) | > 100 µM (inactive) | > 100 µM (inactive) |
| CC(=O)CC(C)(C)NC(=O)[C@@]1(O)CC[C@H]2[C@@H]3CCC4=CC(=O)CC[C@@H]4[C@H]3CC[C@@]21C | > 100 µM (inactive) | > 100 µM (inactive) | > 100 µM (inactive) | > 100 µM (inactive) |  | > 100 µM (inactive) | > 100 µM (inactive) | > 100 µM (inactive) | > 100 µM (inactive) | > 100 µM (inactive) | > 100 µM (inactive) | 63.1 µM (inactive) | > 100 µM (inactive) | > 100 µM (inactive) | > 100 µM (inactive) | > 100 µM (inactive) | > 100 µM (inactive) | > 100 µM (inactive) | > 100 µM (inactive) | > 100 µM (inactive) |
| Cc1ccnc2[nH]c(-c3ccccc3)cc(=O)c12 | 0.106 µM (active) |  | 0.0124 µM (active) | 0.0524 µM (active) | 0.0116 µM (active) | 0.00583 µM (active) | 0.037 µM (active) | 0.0277 µM (active) | 0.00658 µM (active) | 0.00682 µM (active) | 0.643 µM (active) | 42.5 µM (inactive) | 0.00361 µM (active) | 0.00535 µM (active) | 0.00731 µM (active) | 0.0136 µM (active) | 0.027 µM (active) | 0.0113 µM (active) | 0.3 µM (active) | 0.0092 µM (active) |
| Cc1nc(C)c(N2CCN(S(=O)(=O)N(Cc3ccccc3)Cc3ccccc3)CC2)c(O)n1 | 33.6 µM (inactive) | 26.7 µM (inactive) | 6.64 µM (inactive) | 9.73 µM (inactive) |  | 52.8 µM (inactive) | > 100 µM (inactive) | > 100 µM (inactive) | > 100 µM (inactive) | > 46.9 µM (inactive) | 29.2 µM (inactive) | 24.1 µM (inactive) | > 100 µM (inactive) | 5.12 µM (inactive) | > 100 µM (inactive) | 7.76 µM (inactive) | 4.78 µM (inactive) | > 100 µM (inactive) | > 60 µM (inactive) | > 100 µM (inactive) |
| C[C@]12CC[C@@H]3c4cc(Br)c(O)c(Br)c4CC[C@H]3[C@@H]1CC(Br)C2=O (stereo not given in full) | 14.2 µM (inactive) | 12.2 µM (inactive) | 4.24 µM (inactive) | 20.7 µM (inactive) | 3.7 µM (inactive) | 2.58 µM (inactive) | 1.99 µM (inactive) | 4.53 µM (inactive) | 7.03 µM (inactive) | 5.82 µM (inactive) | 22.1 µM (inactive) | 4.65 µM (inactive) | 3.26 µM (inactive) | 3.59 µM (inactive) |  | 14.6 µM (inactive) | 2.54 µM (inactive) | 15.8 µM (inactive) | 13.2 µM (inactive) | 15.2 µM (inactive) |
| CC(C)OP(=O)(OC(C)C)C(C(F)(F)F)C(F)(F)F | > 100 µM (inactive) | > 100 µM (inactive) | > 100 µM (inactive) | > 100 µM (inactive) | > 100 µM (inactive) | > 100 µM (inactive) | > 100 µM (inactive) | > 100 µM (inactive) | > 100 µM (inactive) |  | > 100 µM (inactive) | > 100 µM (inactive) | > 100 µM (inactive) | > 100 µM (inactive) | > 100 µM (inactive) | > 100 µM (inactive) | > 100 µM (inactive) | > 100 µM (inactive) | > 100 µM (inactive) | > 100 µM (inactive) |
| CC(=O)NC(C)(C)C1CC=C(C)/C(=N\O)C1 (stereo not given) | > 100 µM (inactive) |  | > 100 µM (inactive) | > 100 µM (inactive) |  | > 100 µM (inactive) | > 100 µM (inactive) | > 100 µM (inactive) | > 100 µM (inactive) | > 100 µM (inactive) | > 100 µM (inactive) | > 100 µM (inactive) | > 100 µM (inactive) | > 100 µM (inactive) |  | > 100 µM (inactive) | > 100 µM (inactive) | > 100 µM (inactive) | > 100 µM (inactive) |  |
| CCOC(=O)C(Cc1ccc2c(c1)CCC2)(Cc1ccc2c(c1)CCC2)C(=O)OCC | > 100 µM (inactive) | 35.6 µM (inactive) | 94.2 µM (inactive) | 26.9 µM (inactive) | > 100 µM (inactive) | 26.1 µM (inactive) | 49 µM (inactive) |  | 96.2 µM (inactive) | 51.3 µM (inactive) | > 100 µM (inactive) | 34.2 µM (inactive) | 30.5 µM (inactive) |  | 55.7 µM (inactive) | > 100 µM (inactive) | > 100 µM (inactive) | 34.7 µM (inactive) | 17.4 µM (inactive) | 21.1 µM (inactive) |
| Cc1nc(C)c(N2CCNCC2)c(O)n1 | > 100 µM (inactive) |  | > 100 µM (inactive) | > 100 µM (inactive) | > 100 µM (inactive) | > 100 µM (inactive) | > 100 µM (inactive) | > 100 µM (inactive) | > 100 µM (inactive) | > 100 µM (inactive) |  | > 100 µM (inactive) | > 100 µM (inactive) | > 100 µM (inactive) | > 100 µM (inactive) | > 100 µM (inactive) | > 100 µM (inactive) | > 100 µM (inactive) | > 100 µM (inactive) | > 100 µM (inactive) |
| COc1ccc(NC(=O)CC(=O)N2N=C(N(c3ccccc3)c3ccccc3)CC2c2ccccc2)cc1 (stereo not given) | > 100 µM (inactive) | > 100 µM (inactive) | > 100 µM (inactive) | > 100 µM (inactive) | > 100 µM (inactive) | > 100 µM (inactive) | > 100 µM (inactive) | > 100 µM (inactive) | > 100 µM (inactive) |  | > 100 µM (inactive) | > 100 µM (inactive) | > 100 µM (inactive) | > 100 µM (inactive) | > 100 µM (inactive) | > 100 µM (inactive) | > 100 µM (inactive) | > 100 µM (inactive) | > 100 µM (inactive) |  |
| C[n+]1c(/C=C/c2ccc(/C=N/NC(=O)c3ccc(C(=O)N/N=C/c4ccc(/C=C/c5cn6ccccc6[n+]5C)cc4)cc3)cc2)cn2ccccc21 | > 100 µM (inactive) |  | 16.6 µM (inactive) | > 100 µM (inactive) | > 100 µM (inactive) | > 100 µM (inactive) | > 100 µM (inactive) | > 100 µM (inactive) | > 100 µM (inactive) | > 100 µM (inactive) | > 100 µM (inactive) | > 100 µM (inactive) | > 100 µM (inactive) |  | > 100 µM (inactive) | > 100 µM (inactive) | > 100 µM (inactive) | > 100 µM (inactive) | > 100 µM (inactive) | > 100 µM (inactive) |
| CC1=C(C(=O)NNC(=O)C[N+](C)(C)C)CC(C(=O)NNC(=O)C[N+](C)(C)C)=C(C)N1 | > 100 µM (inactive) | > 100 µM (inactive) | > 100 µM (inactive) | 71.8 µM (inactive) | > 100 µM (inactive) | > 100 µM (inactive) | > 100 µM (inactive) | > 100 µM (inactive) | > 100 µM (inactive) | > 100 µM (inactive) | > 100 µM (inactive) | 63.2 µM (inactive) | > 100 µM (inactive) | > 100 µM (inactive) | > 100 µM (inactive) | > 100 µM (inactive) | > 100 µM (inactive) | > 100 µM (inactive) | > 100 µM (inactive) |  |
| C=C(C)COc1cc(/N=C(/S)OC(C)C)ccc1Cl | 15.2 µM (inactive) | 13.6 µM (inactive) | 16.6 µM (inactive) | 13.6 µM (inactive) | 15.3 µM (inactive) | 15.8 µM (inactive) | 15.5 µM (inactive) | 16.1 µM (inactive) | 17.2 µM (inactive) | 15.4 µM (inactive) | 15.7 µM (inactive) | 13.3 µM (inactive) | 14.4 µM (inactive) | 17.3 µM (inactive) | 20 µM (inactive) | 19.3 µM (inactive) | 16.2 µM (inactive) | 17.3 µM (inactive) | 11.8 µM (inactive) |  |
